Reference: patent US20240423982A1 (Eli Lilly and Company, priority 2023, published 2024)

Tested on: new-onset type-1 diabetes patients
Test: randomized placebo-controlled study of baricitinib 4 mg per day for 48 weeks in new-onset type 1 diabetes
Format: in vivo, human
Method: Participants: Eligibility criteria included age between 10 and 30 years, diagnosis of type 1 diabetes according to ADA criteria within 100 days of starting study drug, presence of at least one islet autoantibody and either random C-peptide>0.3 pmol/mL or C-peptide>0.2 pmol/mL per during a 2 h MMTT. Exclusion criteria included treatment with other immunomodulatory agents, and clinically significant comorbidities including cytopenias, known malignancy, history of thrombosis or LDL cholesterol>155 mg/dL. All participants received standard diabetes management with a target HbA1c of less than 7% in adults and less than 7.5% in participants less than 18 years of age, in accordance with current ADA recommendations.
Primary, secondary, and exploratory outcomes: The primary outcome was the average C-peptide during a 2 h MMTT at 48 weeks, calculated as the area under the trapezoidal curve divided by 120 minutes. Secondary outcomes included HbA1c, total daily insulin use, CGM measures from the ambulatory glucose profile. Participants were requested to wear either a Freestyle Libre2 or Dexcom G6 CGM for 14 days at baseline, 12, 24, 48, 72 and 96 weeks. Exploratory mechanistic outcomes included the assessment of basal and cytokine-stimulated phosphorylation of STAT proteins in fresh whole blood, and the frequency of T-cell subsets in PBMC. Samples for these were collected at baseline and 24 weeks.

[1] = weeks 12 and 24, but not week 48, versus placebo

Q: Which tolerability (4 mg per day orally, 48 weeks) does the source give for CCS(=O)(=O)N1CC(CC#N)(n2cc(-c3ncnc4[nH]ccc34)cn2)C1 [baricitinib, {1-(ethylsulfonyl)-3-[4-(7H-pyrrolo[2,3-d]pyrimidin-4-yl)-1H-pyrazol-1-yl]azetidin-3-yl}acetonitrile] here?
A: Its tolerability is “well tolerated”.

Q: What about the “glucose coefficient of variation (CGM)” value (12, 24 and 48 weeks, versus placebo) of the same compound?
A: The value was “improved significantly”.

Q: And the HbA1c (48 weeks, mean±SEM, placebo 7.4±0.27, p=0.216)?
A: Its HbA1c is 7.0%.

Q: And the “insulin use compared to placebo” value (FIG. 1B, over treatment)?
A: The value was “significantly lower insulin use”.

Q: What about the “lipid profile, liver function or renal function versus placebo” value (baseline, 12, 24, or 48 weeks) of the same compound?
A: Its value is “no significant differences”.

Q: What about the “time below range <70 mg/dl (<3.9 mmol/L) (CGM)” value (between groups) of the same compound?
A: Its value is “no significant differences”.

Q: What about the “median number of AEs” value (placebo 3) of the same compound?
A: The value was 2.

Q: And the “SAEs attributed to study medication” value (total of seven SAEs recorded in both groups)?
A: Its value is “none of which were attributed to study medication”.

Q: And the “median C-peptide during 2 h MMTT” value (week 48, 4 mg per day orally, placebo 0.45 (0.13-0.63), p=0.001)?
A: Its value is 0.65 (0.31-0.82) pmol/mL/min.

Q: What about the daily insulin dose (week 48, median, placebo 0.48 (0.37-0.64), p=0.004) of the same compound?
A: The daily insulin dose was 0.39 (0.22-0.57) U/kg/day.

Q: What about the “C-peptide decline compared to baseline” value (week 48, placebo 29.5%, p=0.008) of the same compound?
A: The value was 5.5%.

Q: And the “HbA1c difference between groups” value (weeks 12, 24 or 48)?
A: The value was “did not differ significantly”.

Q: And the “daily insulin requirement versus baseline” value (weeks 12 and 24)?
A: Its value is “decreased below baseline”.

Q: And the “median C-peptide compared to placebo” value (weeks 12 and 24)?
A: The value was “significantly higher”.

Q: And the “percent time above 180 mg/dl (10 mmol/l) (CGM)” value [1]?
A: The value was “significantly lower”.

Q: What about the “percent time between 70 and 180 mg/dL (3.9 and 10 mmol/L) (CGM)” value [1] of the same compound?
A: The value was “higher”.
